# Results taken from ChEMBL document CHEMBL4673219, “Novel 5,6-disubstituted pyrrolo[2,3-d]pyrimidine derivatives as broad spectrum antiproliferative agents: Synthesis, cell based assays, kinase profile and molecular docking study” (Bioorg Med Chem, 2018).
# “And” between values parts separate entries of the source, which are not always exact repeats. Identical values can stand only once.
# Experiments:
# Format in all cases: functional
# NCI/ADR-RES [1] = assay: Growth inhibition of human NCI/ADR-RES cells assessed as growth percentage at 10 uM incubated for 48 hrs by sulforhodamine B assay relative to control; conditions: read-out: Activity
# HCC 2998 [2] = assay: Growth inhibition of human HCC 2998 cells assessed as growth percentage at 10 uM incubated for 48 hrs by sulforhodamine B assay relative to control; conditions: read-out: Activity
# HOP-92 [3] = assay: Growth inhibition of human HOP-92 cells assessed as growth percentage at 10 uM incubated for 48 hrs by sulforhodamine B assay relative to control; conditions: read-out: Activity
# CAKI-1 [4] = assay: Growth inhibition of human CAKI-1 cells incubated for 48 hrs by sulforhodamine B assay; conditions: for GI50: CAKI-1; for CC50: read-out: LC50 (the source's name)
# OVCAR-8 = assay: Growth inhibition of human OVCAR-8 cells incubated for 48 hrs by sulforhodamine B assay; conditions: for CC50: read-out: LC50 (the source's name)
# IGROV-1 [5] = assay: Growth inhibition of human IGROV-1 cells incubated for 48 hrs by sulforhodamine B assay
# SK-MEL-2 = assay: Growth inhibition of human SK-MEL-2 cells incubated for 48 hrs by sulforhodamine B assay
# SNB-75 = assay: Growth inhibition of human SNB-75 cells incubated for 48 hrs by sulforhodamine B assay
# HCC 2998 [6] = assay: Growth inhibition of human HCC 2998 cells incubated for 48 hrs by sulforhodamine B assay
# COLO 205 = assay: Growth inhibition of human COLO 205 cells incubated for 48 hrs by sulforhodamine B assay
# HOP-62 = assay: Growth inhibition of human HOP-62 cells incubated for 48 hrs by sulforhodamine B assay
# SR = assay: Growth inhibition of human SR cells incubated for 48 hrs by sulforhodamine B assay; conditions: for CC50: read-out: LC50 (the source's name)
# MDA-MB-231 = assay: Growth inhibition of human MDA-MB-231/ATCC cells assessed as growth percentage at 100 uM incubated for 48 hrs by sulforhodamine B assay relative to control; conditions: read-out: Activity
# MCF7 = assay: Growth inhibition of human MCF7 cells assessed as growth percentage at 100 uM incubated for 48 hrs by sulforhodamine B assay relative to control; conditions: read-out: Activity
# PC-3 = assay: Growth inhibition of human PC-3 cells assessed as growth percentage at 100 uM incubated for 48 hrs by sulforhodamine B assay relative to control; conditions: read-out: Activity
# NCI/ADR-RES [7] = assay: Growth inhibition of human NCI/ADR-RES cells assessed as growth percentage at 100 uM incubated for 48 hrs by sulforhodamine B assay relative to control; conditions: read-out: Activity
# OVCAR-3 [8] = assay: Growth inhibition of human OVCAR-3 cells assessed as growth percentage at 100 uM incubated for 48 hrs by sulforhodamine B assay relative to control; conditions: read-out: Activity
# UACC-257 = assay: Growth inhibition of human UACC-257 cells assessed as growth percentage at 100 uM incubated for 48 hrs by sulforhodamine B assay relative to control; conditions: read-out: Activity
# SNB-19 [9] = assay: Growth inhibition of human SNB-19 cells assessed as growth percentage at 100 uM incubated for 48 hrs by sulforhodamine B assay relative to control; conditions: read-out: Activity
# Hs-578T = assay: Growth inhibition of human Hs-578T cells assessed as growth percentage at 1 uM incubated for 48 hrs by sulforhodamine B assay relative to control; conditions: read-out: Activity
# UO-31 = assay: Growth inhibition of human UO-31 cells assessed as growth percentage at 1 uM incubated for 48 hrs by sulforhodamine B assay relative to control; conditions: read-out: Activity
# OVCAR-3 [10] = assay: Growth inhibition of human OVCAR-3 cells assessed as growth percentage at 1 uM incubated for 48 hrs by sulforhodamine B assay relative to control; conditions: read-out: Activity
# U-251 [11] = assay: Growth inhibition of human U-251 cells assessed as growth percentage at 1 uM incubated for 48 hrs by sulforhodamine B assay relative to control; conditions: read-out: Activity
# SNB-19 [12] = assay: Growth inhibition of human SNB-19 cells assessed as growth percentage at 1 uM incubated for 48 hrs by sulforhodamine B assay relative to control; conditions: read-out: Activity
# HCT-15 = assay: Growth inhibition of human HCT-15 cells assessed as growth percentage at 1 uM incubated for 48 hrs by sulforhodamine B assay relative to control; conditions: read-out: Activity
# HCC 2998 [13] = assay: Growth inhibition of human HCC 2998 cells assessed as growth percentage at 1 uM incubated for 48 hrs by sulforhodamine B assay relative to control; conditions: read-out: Activity
# M14 = assay: Growth inhibition of human M14 cells assessed as growth percentage at 0.1 uM incubated for 48 hrs by sulforhodamine B assay relative to control; conditions: read-out: Activity
# SW-620 = assay: Growth inhibition of human SW-620 cells assessed as growth percentage at 0.1 uM incubated for 48 hrs by sulforhodamine B assay relative to control; conditions: read-out: Activity
# NCI-H522 = assay: Growth inhibition of human NCI-H522 cells assessed as growth percentage at 0.1 uM incubated for 48 hrs by sulforhodamine B assay relative to control; conditions: read-out: Activity
# HOP-92 [14] = assay: Growth inhibition of human HOP-92 cells assessed as growth percentage at 0.1 uM incubated for 48 hrs by sulforhodamine B assay relative to control; conditions: read-out: Activity
# MDA-MB-468 = assay: Growth inhibition of human MDA-MB-468 cells assessed as growth percentage at 0.01 uM incubated for 48 hrs by sulforhodamine B assay relative to control; conditions: read-out: Activity
# CAKI-1 [15] = assay: Growth inhibition of human CAKI-1 cells assessed as growth percentage at 0.01 uM incubated for 48 hrs by sulforhodamine B assay relative to control; conditions: read-out: Activity
# 786-0 = assay: Growth inhibition of human 786-0 cells assessed as growth percentage at 0.01 uM incubated for 48 hrs by sulforhodamine B assay relative to control; conditions: read-out: Activity
# IGROV-1 [16] = assay: Growth inhibition of human IGROV-1 assessed as growth percent at 0.01 uM incubated for 48 hrs by sulforhodamine B assay relative to control; conditions: read-out: Activity
# U-251 [17] = assay: Growth inhibition of human U-251 cells assessed as growth percentage at 0.01 uM incubated for 48 hrs by sulforhodamine B assay relative to control; conditions: read-out: Activity
# NCI-H460 = assay: Growth inhibition of human NCI-H460 cells assessed as growth percentage at 0.01 uM incubated for 48 hrs by sulforhodamine B assay relative to control; conditions: read-out: Activity
# HOP-92 [18] = assay: Growth inhibition of human HOP-92 cells assessed as growth percentage at 0.01 uM incubated for 48 hrs by sulforhodamine B assay relative to control; conditions: read-out: Activity
# CCRF-CEM = assay: Growth inhibition of human CCRF-CEM cells assessed as growth percentage at 0.01 uM incubated for 48 hrs by sulforhodamine B assay relative to control; conditions: read-out: Activity
# [19] = read-out: LC50 (the source's name)
smiles,measurement,setting,value
CCCCCCCC(=O)Nc1nc2[nH]c(CN3CCN(Cc4cccc(F)c4)CC3)c(CN3CCN(Cc4cccc(F)c4)CC3)c2c(=O)[nH]1,growth at 10 µM,NCI/ADR-RES [1],-66.1%
same,growth at 10 µM,HCC 2998 [2],-81.8%
same,growth at 10 µM,HOP-92 [3],-7.31%
same,GI50,CAKI-1 [4]; Homo sapiens,1320 nM
same,TGI,"CAKI-1 [4]; Homo sapiens, CAKI-1, 48 h",2610 nM
same,CC50,"CAKI-1 [4]; Homo sapiens, CAKI-1, 48 h",5180 nM
same,GI50,OVCAR-8; 48 h,210 nM
same,TGI,OVCAR-8; 48 h,410 nM
same,CC50,OVCAR-8; 48 h,800 nM
same,GI50,"OVCAR-8; Homo sapiens, OVCAR-8, 48 h",205 nM
same,TGI,"OVCAR-8; Homo sapiens, OVCAR-8, 48 h",405 nM
same,CC50,"OVCAR-8; Homo sapiens, OVCAR-8, 48 h",801 nM
same,GI50,IGROV-1 [5],1430 nM
same,TGI,IGROV-1 [5],3200 nM
same,CC50,IGROV-1 [5]; [19],7140 nM
same,GI50,SK-MEL-2; 48 h,1570 nM
same,TGI,SK-MEL-2; 48 h,3030 nM
same,GI50,"SK-MEL-2; Homo sapiens, SK-MEL-2, 48 h",2210 nM
same,TGI,"SK-MEL-2; Homo sapiens, SK-MEL-2, 48 h",4120 nM
same,CC50,"SK-MEL-2; Homo sapiens, SK-MEL-2, read-out: LC50 (the source's name)",5870 nM
same,GI50,SNB-75,1340 nM
same,"LC50 (lethal concentration, 50% cell kill)",SNB-75,5280 nM
same,TGI,SNB-75,2660 nM
same,GI50,HCC 2998 [6]; 48 h,250 nM
same,TGI,HCC 2998 [6]; 48 h,570 nM
same,GI50,"HCC 2998 [6]; Homo sapiens, HCC 2998, 48 h",248 nM
same,TGI,"HCC 2998 [6]; Homo sapiens, HCC 2998, 48 h",573 nM
same,CC50,"HCC 2998 [6]; Homo sapiens, HCC 2998, read-out: LC50 (the source's name)",2620 nM
same,GI50,COLO 205,1400 nM
same,TGI,COLO 205,2820 nM
same,CC50,COLO 205; [19],5680 nM
same,GI50,HOP-62,1420 nM
same,TGI,HOP-62,2850 nM
same,CC50,HOP-62; [19],5700 nM
same,GI50,SR,210 nM
same,TGI,SR,550 nM
same,GI50,"SR; Homo sapiens, SR",208 nM
same,TGI,"SR; Homo sapiens, SR",548 nM
same,CC50,"SR; Homo sapiens, SR",> 100000 nM
same,growth at 100 µM,MDA-MB-231,-66%
same,growth at 100 µM,MCF7,-63%
same,growth at 100 µM,PC-3,-88%
same,growth at 100 µM,NCI/ADR-RES [7],-86%
same,growth at 100 µM,OVCAR-3 [8],-73%
same,growth at 100 µM,UACC-257,-91%
same,growth at 100 µM,SNB-19 [9],-83%
same,growth at 1 µM,Hs-578T,61%
same,growth at 1 µM,UO-31,25%
same,growth at 1 µM,OVCAR-3 [10],44%
same,growth at 1 µM,U-251 [11],-88%
same,growth at 1 µM,SNB-19 [12],82%
same,growth at 1 µM,HCT-15,1%
same,growth at 1 µM,HCC 2998 [13],-33%
same,growth at 0.1 µM,M14,94%
same,growth at 0.1 µM,SW-620,97%
same,growth at 0.1 µM,NCI-H522,94%
same,growth at 0.1 µM,HOP-92 [14],86%
same,growth at 0.01 µM,MDA-MB-468,92%
same,growth at 0.01 µM,CAKI-1 [15],92%
same,growth at 0.01 µM,786-0,98%
same,growth at 0.01 µM,IGROV-1 [16],98%
same,growth at 0.01 µM,U-251 [17],97%
same,growth at 0.01 µM,NCI-H460,94%
same,growth at 0.01 µM,HOP-92 [18],90%
same,growth at 0.01 µM,CCRF-CEM,98%
Nc1nc2[nH]c(CN3CCN(c4cc(Cl)cc(Cl)c4)CC3)c(CN3CCN(c4cc(Cl)cc(Cl)c4)CC3)c2c(=O)[nH]1,growth at 10 µM,NCI/ADR-RES [1],87.6%
same,growth at 10 µM,HCC 2998 [2],24%
same,growth at 10 µM,HOP-92 [3],66.2%
same,TGI,CAKI-1 [4]; 48 h,18000 nM and 1800 nM
same,CC50,CAKI-1 [4]; 48 h,43700 nM and 4370 nM
same,GI50,CAKI-1 [4]; Homo sapiens,5100 nM
same,GI50,"OVCAR-8; Homo sapiens, OVCAR-8, 48 h",2050 nM
same,TGI,"OVCAR-8; Homo sapiens, OVCAR-8, 48 h",4480 nM
same,GI50,IGROV-1 [5],1950 nM
same,TGI,IGROV-1 [5],3980 nM
same,GI50,"SK-MEL-2; Homo sapiens, SK-MEL-2, 48 h",2210 nM
same,TGI,"SK-MEL-2; Homo sapiens, SK-MEL-2, 48 h",4120 nM
same,GI50,SNB-75,1420 nM
same,TGI,SNB-75,2740 nM
same,GI50,"HCC 2998 [6]; Homo sapiens, HCC 2998, 48 h",1700 nM
same,TGI,"HCC 2998 [6]; Homo sapiens, HCC 2998, 48 h",3160 nM
same,GI50,COLO 205,1690 nM
same,TGI,COLO 205,3560 nM
same,GI50,HOP-62,1670 nM
same,TGI,HOP-62,3450 nM
same,GI50,"SR; Homo sapiens, SR",1460 nM
same,TGI,"SR; Homo sapiens, SR",4460 nM
same,CC50,SR,> 100000 nM
same,growth at 100 µM,MDA-MB-231,-30%
same,growth at 100 µM,MCF7,-48%
same,growth at 100 µM,PC-3,-81%
same,growth at 100 µM,NCI/ADR-RES [7],55%
same,growth at 100 µM,OVCAR-3 [8],-84%
same,growth at 100 µM,UACC-257,-57%
same,growth at 100 µM,SNB-19 [9],-16%
same,growth at 1 µM,Hs-578T,84%
same,growth at 1 µM,UO-31,90%
same,growth at 1 µM,OVCAR-3 [10],98%
same,growth at 1 µM,U-251 [11],90%
same,growth at 1 µM,SNB-19 [12],89%
same,growth at 1 µM,HCT-15,94%
same,growth at 1 µM,HCC 2998 [13],93%
same,growth at 0.1 µM,M14,98%
same,growth at 0.1 µM,SW-620,94%
same,growth at 0.1 µM,NCI-H522,97%
same,growth at 0.1 µM,HOP-92 [14],73%
same,growth at 0.01 µM,MDA-MB-468,97%
same,growth at 0.01 µM,CAKI-1 [15],87%
same,growth at 0.01 µM,786-0,94%
same,growth at 0.01 µM,IGROV-1 [16],104%
same,growth at 0.01 µM,U-251 [17],99%
same,growth at 0.01 µM,NCI-H460,105%
same,growth at 0.01 µM,HOP-92 [18],85%
same,growth at 0.01 µM,CCRF-CEM,99%
